The values that follow come from ChEMBL document CHEMBL2218064, “Structure-activity relationship data for chemical series of antagonists of the P2X7 receptor (Supplementary Bioactivity Data for publication CHEMBL1157114)”.

The assay deals with T1, P2X purinoceptor 7 (Homo sapiens, UniProt Q99572).
T1 sequence (Q99572 whole entry): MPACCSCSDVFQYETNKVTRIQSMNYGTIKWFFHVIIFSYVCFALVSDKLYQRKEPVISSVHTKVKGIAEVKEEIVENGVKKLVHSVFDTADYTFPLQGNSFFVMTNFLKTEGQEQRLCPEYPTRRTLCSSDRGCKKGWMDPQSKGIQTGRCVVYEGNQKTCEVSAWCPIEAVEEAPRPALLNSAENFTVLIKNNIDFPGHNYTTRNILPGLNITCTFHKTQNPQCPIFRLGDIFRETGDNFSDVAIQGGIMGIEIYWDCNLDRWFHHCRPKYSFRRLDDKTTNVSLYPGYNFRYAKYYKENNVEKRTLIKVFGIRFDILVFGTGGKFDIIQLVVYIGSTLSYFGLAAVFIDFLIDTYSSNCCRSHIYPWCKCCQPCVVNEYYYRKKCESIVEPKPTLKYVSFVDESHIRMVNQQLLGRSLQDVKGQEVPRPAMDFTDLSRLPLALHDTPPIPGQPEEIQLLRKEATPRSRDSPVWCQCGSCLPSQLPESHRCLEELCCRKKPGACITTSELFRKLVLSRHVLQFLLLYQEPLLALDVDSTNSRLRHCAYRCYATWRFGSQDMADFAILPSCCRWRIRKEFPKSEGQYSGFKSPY
The assay can be described thus: SUPPLEMENTARY: Inhibition of human P2X7 receptor assessed as inhibition of ethidium bromide accumulation. Same assay as CHEMBL1103860.

In the case of `CCOc1ccc(-n2nc(C)c(CC(=O)NCc3ccc(F)cc3Cl)c2C)cc1`, the IC50 – broadly, the midpoint of a concentration-inhibition curve – is 158 nM.
Take `O=C(c1ccc(Cl)cc1C(F)(F)F)N1CCn2c(nnc2-c2cnccn2)C1`: the half-inhibitory concentration (IC50) was 20 nM.
Under `Cc1ccc(C(=O)N2CCn3c(nnc3-c3cnccn3)C2)c(C)c1` stands 126 nM; under `Cc1nn(-c2ccccc2)c(C)c1CC(=O)NCc1ccccc1Br`, 316 nM.
To `Cc1nn(-c2ccccc2)c(C)c1CC(=O)NCc1cccc(F)c1F` belongs 316 nM.
For `Cc1nn(-c2ccccc2)c(C)c1CC(=O)NCc1c(F)cccc1Cl`, the IC50 is 316 nM.
As to `Cc1nn(-c2ccccc2)c(C)c1CC(=O)NCc1cc(C(F)(F)F)ccc1Cl`, the IC50 is 501 nM.
To `Cc1nn(-c2ccccc2)c(C)c1CC(=O)NCc1cc(F)ccc1C(F)(F)F` belongs 501 nM; to `Cc1nn(-c2ccccc2)c(C)c1CC(=O)NCc1c(Cl)cccc1Cl`, 63.1 nM; to `Cc1nn(-c2ccccc2)c(C)c1CC(=O)NCc1cc(Cl)ccc1Cl`, 631 nM.
To `Cc1nn(-c2ccccc2)c(C)c1CC(=O)NCc1ccc(F)cc1C(F)(F)F` belongs 158 nM; to `Cc1nn(-c2ccc(F)cc2F)c(C)c1CC(=O)NCc1ccc(F)cc1Cl`, 50.1 nM.
For the molecule `Cc1nn(-c2cccc(F)c2)c(C)c1CC(=O)NCc1ccc(F)cc1Cl`, the IC50 was 200 nM.
To `Cc1nn(-c2cccc(Cl)c2)c(C)c1CC(=O)NCc1ccc(F)cc1Cl` belongs 316 nM.
To `COc1cccc(-n2nc(C)c(CC(=O)NCc3ccc(F)cc3Cl)c2C)c1` belongs 501 nM; to `Cc1nn(-c2ccccc2F)c(C)c1CC(=O)NCc1ccc(F)cc1Cl`, 158 nM.
Turning to `Cc1nn(-c2ccccc2Cl)c(C)c1CC(=O)NCc1ccc(F)cc1Cl`, the IC50 is 100 nM.
Take `COc1ccccc1-n1nc(C)c(CC(=O)NCc2ccc(F)cc2Cl)c1C`: the concentration for half-maximal inhibition (IC50) was 501 nM.
To `Cc1ccc(-n2nc(C)c(CC(=O)NCc3ccc(F)cc3Cl)c2C)cc1` belongs 126 nM; to `Cc1nn(-c2ccccn2)c(C)c1CC(=O)NCc1ccc(F)cc1Cl`, 100 nM; to `Cc1c(CC(=O)NCc2ccc(F)cc2Cl)c(C(C)C)nn1-c1ccccc1`, 251 nM.
Take `Cc1nn(-c2ccccc2)c(C(C)C)c1CC(=O)NCc1ccc(F)cc1Cl`: the IC50 is 631 nM.
For `Cc1nn(-c2ccc(N3CCCC3=O)cc2)c(C)c1CC(=O)NCc1ccc(F)cc1Cl`, the IC50 was 63.1 nM.
For the molecule `Cc1nn(-c2ccc(C#N)cn2)c(C)c1CC(=O)NCc1ccc(F)cc1Cl`, the IC50 is 794 nM.
Under `Cc1nn(-c2ncc(Cl)cc2Cl)c(C)c1CC(=O)NCc1ccc(F)cc1Cl` stands 200 nM; under `Cc1nn(-c2ccncc2)c(C)c1CC(=O)NCc1ccc(F)cc1Cl`, 63.1 nM.
To `Cc1nn(-c2ccc(Cl)cn2)c(C)c1CC(=O)NCc1ccc(F)cc1Cl` belongs 251 nM; to `Cc1nn(-c2nccs2)c(C)c1CC(=O)NCc1ccc(F)cc1Cl`, 316 nM; to `Cc1nn(-c2ccccc2)c(C)c1CC(=O)NCc1ccc(Cl)c(Cl)c1`, 158 nM.
Take `Cc1nn(-c2ccccc2)c(C)c1CC(=O)NCc1ccc(F)c(C(F)(F)F)c1`: the IC50 was 316 nM.
